Reference: US7482379B2, “Propenoyl hydrazides” (priority 2004, dated 2009)

How the values were obtained:
Caspase-2 = molecular target: T1, Caspase-2 (Homo sapiens, UniProt P42575); assay: Caspase-2 progress curve inhibition assay; details: second-order rate constant; Cbz-VDVAD-AFC substrate; Pipes buffer pH 7.2
T1 sequence (P42575 170-333 limits assumed): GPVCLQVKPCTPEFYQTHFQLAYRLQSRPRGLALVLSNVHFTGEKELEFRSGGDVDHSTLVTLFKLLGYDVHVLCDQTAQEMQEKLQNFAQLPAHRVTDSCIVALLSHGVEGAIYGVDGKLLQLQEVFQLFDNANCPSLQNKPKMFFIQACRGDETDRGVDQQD
T1 sequence (P42575 348-452 limits assumed): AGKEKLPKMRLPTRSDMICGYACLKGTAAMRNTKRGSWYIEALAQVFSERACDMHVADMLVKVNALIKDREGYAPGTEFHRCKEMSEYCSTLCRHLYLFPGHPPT

Caspase-3 = molecular target: T2, Caspase-3 (Homo sapiens, UniProt P42574); assay: Caspase-3 progress curve inhibition assay; details: second-order rate constant; Ac-DEVD-AMC substrate; Pipes buffer pH 7.2
T2 sequence (P42574 29-175 limits assumed): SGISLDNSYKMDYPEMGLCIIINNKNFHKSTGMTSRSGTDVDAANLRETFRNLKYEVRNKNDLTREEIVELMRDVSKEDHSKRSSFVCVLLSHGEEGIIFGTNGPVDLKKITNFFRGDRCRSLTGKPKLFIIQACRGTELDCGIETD
T2 sequence (P42574 176-277 limits assumed): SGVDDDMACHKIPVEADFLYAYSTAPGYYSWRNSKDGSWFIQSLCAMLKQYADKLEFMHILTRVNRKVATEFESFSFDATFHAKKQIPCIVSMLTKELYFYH

Caspase-6 = molecular target: T3, Caspase-6 (Homo sapiens, UniProt P55212); assay: Caspase-6 progress curve inhibition assay; details: second-order rate constant; Ac-DEVD-AMC substrate; Pipes buffer pH 7.2
T3 sequence (P55212 24-179 limits assumed): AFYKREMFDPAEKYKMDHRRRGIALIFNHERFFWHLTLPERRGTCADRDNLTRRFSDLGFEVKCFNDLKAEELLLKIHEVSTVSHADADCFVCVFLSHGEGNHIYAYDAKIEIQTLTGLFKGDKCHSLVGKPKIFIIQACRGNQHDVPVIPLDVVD
T3 sequence (P55212 194-293 limits assumed): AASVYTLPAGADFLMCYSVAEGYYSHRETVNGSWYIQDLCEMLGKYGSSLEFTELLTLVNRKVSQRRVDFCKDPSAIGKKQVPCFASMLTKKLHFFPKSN

Caspase-7 = molecular target: T4, Caspase-7 (Homo sapiens, UniProt P55210); assay: Caspase-7 progress curve inhibition assay; details: second-order rate constant; Ac-DEVD-AMC substrate; Pipes buffer pH 7.2
T4 sequence (P55210 24-198 limits assumed): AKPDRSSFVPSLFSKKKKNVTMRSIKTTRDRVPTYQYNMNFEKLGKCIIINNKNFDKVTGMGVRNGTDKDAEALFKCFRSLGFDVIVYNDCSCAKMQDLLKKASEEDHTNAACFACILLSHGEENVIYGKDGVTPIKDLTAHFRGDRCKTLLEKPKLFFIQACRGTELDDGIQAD
T4 sequence (P55210 207-303 limits assumed): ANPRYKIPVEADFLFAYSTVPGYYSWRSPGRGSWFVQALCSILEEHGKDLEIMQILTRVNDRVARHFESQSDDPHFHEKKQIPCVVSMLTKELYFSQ

Caspase-8 = Caspase-8 (Homo sapiens, UniProt Q14790); assay: Caspase-8 progress curve inhibition assay; details: second-order rate constant; Ac-DEVD-AMC substrate; Pipes buffer pH 7.2
Chain of Caspase-8 (Q14790 217-374 limits assumed): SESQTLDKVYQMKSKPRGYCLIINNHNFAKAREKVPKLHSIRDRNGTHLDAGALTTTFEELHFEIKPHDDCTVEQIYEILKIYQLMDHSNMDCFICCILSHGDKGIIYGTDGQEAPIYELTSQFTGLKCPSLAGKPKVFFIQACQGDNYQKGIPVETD
Chain of Caspase-8 (Q14790 385-479 limits assumed): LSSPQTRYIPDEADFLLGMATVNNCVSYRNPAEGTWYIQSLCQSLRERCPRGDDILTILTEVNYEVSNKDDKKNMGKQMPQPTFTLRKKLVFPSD

Caspase-9 = molecular target: T5, Caspase-9 (Homo sapiens, UniProt P55211); assay: Caspase-9 progress curve inhibition assay; details: second-order rate constant; Ac-LEHD-AFC substrate; Hepes buffer pH 7.0 with 0.7 M sodium citrate
T5 sequence (P55211 1-315 limits assumed): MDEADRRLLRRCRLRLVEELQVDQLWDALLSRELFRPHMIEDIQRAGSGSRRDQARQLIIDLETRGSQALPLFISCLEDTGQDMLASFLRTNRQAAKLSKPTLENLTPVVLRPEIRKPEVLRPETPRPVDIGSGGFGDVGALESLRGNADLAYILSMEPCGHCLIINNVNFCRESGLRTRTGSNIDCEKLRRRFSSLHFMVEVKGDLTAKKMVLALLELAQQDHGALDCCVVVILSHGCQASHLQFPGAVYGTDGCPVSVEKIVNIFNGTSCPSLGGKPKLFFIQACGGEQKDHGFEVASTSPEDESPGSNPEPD
T5 sequence (P55211 331-416 limits assumed): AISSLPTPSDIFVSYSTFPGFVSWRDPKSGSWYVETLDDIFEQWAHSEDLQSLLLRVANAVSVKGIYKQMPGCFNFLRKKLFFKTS

Caspase-10 = molecular target: T6, Caspase-10 (Homo sapiens, UniProt Q92851); assay: Caspase-10 progress curve inhibition assay; details: second-order rate constant; Ac-DEVD-AMC substrate; Hepes/PEG buffer pH 7.0
T6 sequence (Q92851 220-415 limits assumed): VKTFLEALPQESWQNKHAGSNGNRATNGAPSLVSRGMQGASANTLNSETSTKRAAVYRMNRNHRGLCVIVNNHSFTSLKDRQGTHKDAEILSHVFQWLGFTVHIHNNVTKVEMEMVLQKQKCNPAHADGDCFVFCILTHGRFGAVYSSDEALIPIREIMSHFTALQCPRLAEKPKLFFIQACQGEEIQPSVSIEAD
T6 sequence (Q92851 416-521 limits assumed): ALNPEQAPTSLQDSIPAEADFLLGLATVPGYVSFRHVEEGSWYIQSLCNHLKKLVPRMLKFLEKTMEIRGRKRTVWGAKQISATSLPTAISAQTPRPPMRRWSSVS

Compound | k2 Caspase-2 (Caspase-2) [M⁻¹ s⁻¹] | k2 Caspase-3 (Caspase-3) | k2 Caspase-6 (Caspase-6) | k2 Caspase-7 (Caspase-7) | k2 Caspase-8 (Caspase-8) | k2 Caspase-9 (Caspase-9) | k2 Caspase-10 (Caspase-10)
CC(C)C[C@H](NC(=O)OCc1ccccc1)C(=O)N[C@@H](CCC(=O)O)C(=O)N[C@H](C(=O)NN(CC(=O)O)C(=O)/C=C/C(=O)N(C)Cc1ccccc1)[C@@H](C)O (relative stereo) [Cbz-Leu-Glu-Thr-AAsp-CH═CH—CON(CH3)CH2Ph, N^1-trans-(3-Benzylmethylcarbamoylpropenoyl)-N^2—(N-benzyloxycarbonylleucylglutamylthreonyl)-N^1-carboxylmethylhydrazine] | 140 | 6,000 M^−1s^−1 | 10,800 M^−1s^−1 | 520 M⁻¹ s⁻¹ | 169,000 M^−1s^−1 | 4,320 M^−1s^−1 | 8,430 M^−1s^−1
CC(C)C[C@H](NC(=O)OCc1ccccc1)C(=O)N[C@@H](CCC(=O)O)C(=O)N[C@H](C(=O)NN(CC(=O)O)C(=O)/C=C/C(=O)NCCc1ccccc1)[C@@H](C)O (relative stereo) [Cbz-Leu-Glu-Thr-AAsp-CH═CH—CONHCH2CH2Ph, N^2—(N-Benzyloxycarbonylleucylglutamylthreonyl)-N^1-carboxylmethyl-N^1-trans-(3-phenylethylcarbamoylpropenoyl)hydrazine] | 110 | 5,400 M^−1s^−1 | 2,150 M^−1s^−1 | 440 M⁻¹ s⁻¹ | 121,000 M^−1s^−1 | 1,760 M^−1s^−1 | 17,900 M^−1s^−1
CC(C)C[C@H](NC(=O)OCc1ccccc1)C(=O)N[C@@H](CCC(=O)O)C(=O)N[C@H](C(=O)NN(CC(=O)O)C(=O)/C=C/C(=O)NCc1ccccc1)[C@@H](C)O (relative stereo) [Cbz-Leu-Glu-Thr-AAsp-CH═CH—CONHCH2Ph, N^1-trans-(3-Benzylcarbamoylpropenoyl)-N^2—(N-benzyloxycarbonylleucylglutamylthreonyl)-N^1-carboxylmethylhydrazine] | 66 | 1,120 M^−1s^−1 | 1,550 M^−1s^−1 | 340 M⁻¹ s⁻¹ | 70,170 M^−1s^−1 | 1,400 M^−1s^−1 | 14,400 M^−1s^−1
CC(C)C[C@H](NC(=O)OCc1ccccc1)C(=O)N[C@@H](CCC(=O)O)C(=O)N[C@H](C(=O)NN(CC(=O)O)C(=O)/C=C/C(=O)Nc1ccccc1)[C@@H](C)O (relative stereo) [Cbz-Leu-Glu-Thr-AAsp-CH═CH—CONHPh, N^2—(N-Benzyloxycarbonylleucylglutamylthreonyl)-N^1-carboxylmethyl-N^1-trans-(3-phenylcarbamoylpropenoyl)hydrazine] | 290 | 4,700 M^−1s^−1 | 11,400 M^−1s^−1 | 730 M⁻¹ s⁻¹ | 176,000 M^−1s^−1 | 1,190 M^−1s^−1 | 6,050 M^−1s^−1
CCOC(=O)/C=C/C(=O)N(CC(=O)O)NC(=O)[C@@H](NC(=O)[C@H](CCC(=O)O)NC(=O)[C@@H](NC(=O)OCc1ccccc1)C(C)C)C(C)C (relative stereo) [Cbz-Val-Glu-Val-AAsp-CH═CH—COOEt, N^2—(N-Benzyloxycarbonylvalylglutamylvalyl)-N^1-carboxymethyl-N^1-trans-(3-ethoxycarbonylpropenoyl)hydrazine] | 115 | 41,200 M^−1s^−1 | 83,600 M^−1s^−1 | 3,650 M^−1s^−1 | 175,800 M^−1s^−1 | 340 M⁻¹ s⁻¹ | 6,600 M^−1s^−1
CC(C)[C@H](NC(=O)[C@H](CCC(=O)O)NC(=O)[C@H](CC(=O)O)NC(=O)OCc1ccccc1)C(=O)NN(CC(=O)O)C(=O)/C=C/C(=O)NCc1ccc(F)cc1 (relative stereo) [N^2—(N-Benzyloxycarbonylaspartylglutamylvalyl)-N^1-carboxymethyl-N^1-trans-(3-(4-fluorobenzyl)carbamoylpropenoyl)hydrazine] | 130 | 2,100,000 M^−1s^−1 | 4,400 M^−1s^−1 | 329,000 M^−1s^−1 | 85,100 M^−1s^−1 | 900 M⁻¹ s⁻¹ | 37,700 M^−1s^−1
CC(C)[C@H](NC(=O)[C@H](CCC(=O)O)NC(=O)[C@H](CC(=O)O)NC(=O)OCc1ccccc1)C(=O)NN(CC(=O)O)C(=O)/C=C/C(=O)N(C)CCc1ccccc1 (relative stereo) [N^2—(N-Benzyloxycarbonylaspartylglutamylvalyl)-N^1-carboxymethyl-N^1-trans-(3-phenethylmethylcarbamoylpropenoyl)hydrazine] | 320 | 1,180,000 M^−1s^−1 | 4,000 M^−1s^−1 | 172,000 M^−1s^−1 | 31,900 M^−1s^−1 | 425 M⁻¹ s⁻¹ | 9,570 M^−1s^−1
CC(C)C[C@H](NC(=O)OCc1ccccc1)C(=O)N[C@@H](CCC(=O)O)C(=O)N[C@H](C(=O)NN(CC(=O)O)C(=O)/C=C/C(=O)NCc1ccc(F)cc1)[C@@H](C)O (relative stereo) [N^2—(N-Benzyloxycarbonylleucylglutamylthreonyl)-N^1-carboxylmethyl-N^1-trans-(3-(4-fluorobenzyl)carbamoylpropenoyl)hydrazine] | 70 | 4,490 M^−1s^−1 | 3,100 M^−1s^−1 | 410 M⁻¹ s⁻¹ | 171,000 M^−1s^−1 | 1,695 M^−1s^−1 | 9,380 M^−1s^−1
